Literature values, collected in article PMC7855261 (Cell chemical biology, 2020).

System: r(CUG)12-MBNL1 complex
Conditions: ref Parkesh et al., 2012; Rzuczek et al., 2015

## Nc1ccc2nc(-c3ccc(-c4nc5ccc(N)cc5[nH]4)cc3)[nH]c2c1 [Compound 3, 2,2′-p-Phenylene-bis(5-aminobenzimidazole)]
  Bind r(CUG)^exp and inhibit formation of the r(CUG)^exp-MBNL1 complex: inhibit formation of the r(CUG)^exp-MBNL1 complex
